Data from patent US9802939.
Where two headings read alike, the source gives them in different places.

Conditions: 12-membered ring

| SMILES | ring closure, isolated yield (from C=CCCOc1ccccc1-c1cn(COCC[Si](C)(C)C)c([C@H](CC=C)NC(=O)OC(C)(C)C)n1, rcm bond, Grubbs II (1 eq)/pTsOH, DCM, 1.02 mM, 40.0 °C) [%] | ring closure, isolated yield (from COC(=O)Nc1ccc(-c2cn(COCC[Si](C)(C)C)c([C@H](CN(CCC(=O)O)C(=O)OC(C)(C)C)NC(=O)OCc3ccccc3)n2)c(N)c1, amide bond, BOP/DIEA, DCM/DMF, 0.93 mM, 25.0 °C) [%] |
| --- | --- | --- |
| CC(C)(C)OC(=O)N[C@H]1CC=CCCOc2ccccc2-c2cn(COCC[Si](C)(C)C)c1n2 | 20 | – |
| COC(=O)Nc1ccc2c(c1)NC(=O)CCN(C(=O)OC(C)(C)C)C[C@H](NC(=O)OCc1ccccc1)c1nc-2cn1COCC[Si](C)(C)C | – | 87 |
